Results from patent US5942522A, “Antiviral compounds and antihypertensive compounds” (Schering Corporation, priority 1997, dated 1999).
In brackets after ≈: the same amount, converted by molar mass. Read-outs that look alike come from different tables or passages of the source.

Columns and labels:
[1] = tested on: HSV-2 (strain MS); test: HSV-β-Gal assay: transient expression of beta galactosidase in transfected HeLa cells superinfected with HSV-2; type: cell-based
Experimental: (§1) HeLa and Vero cell cultures were maintained in Eagles Minimal Essential Medium (EMEM) which was supplemented with glutamine, penicillin, streptomycin and 10% fetal calf serum (10% EMEM). Stock cultures of HSV-2 (strain MS available from ATCC VR-540) were grown in and harvested from Vero cells. Viral stocks were titered in Vero cells according to established procedures.
Plasmid pON 245^ori- contains the promoter of the HSV-1 thymidine kinase (tk) gene located immediately 5'of the E. coli lac Z gene. In this arrangement, the tk promoter controls transcription from the bacterial gene in transient expression assays. Additionally, an SV40 polyadenylation signal is present at the 3' end of the lac Z gene to allow for the efficient translation of the mRNA in eucaryotic cells. The expression of beta galactosidase in a transient assay using pON 245^ori- is dependent upon superinfection of the transfected cells with HSV. […] For example see U.S. application Ser. No. 07/435,491 filed Sep. 5, 1989, the disclosure of which is incorporated herein by reference thereto.
HeLa cells were seeded into 96 well microtiter plates and allowed to grow to 80% confluency (approximately 35000 cells/well). One half microgram of plasmid pON 245^ori- DNA was introduced into the cells of each well by the […] precipitation technique (Grahman and Van der Eb, 1973). Four to six hours later, the cells were rinsed with hank's Balanced Salt Solution (HBSS), overlaid with 10% EMEM and incubated at 37° C. At 24 hours post-transfection, cells were rinsed, overlaid with 10% EMEM again and re-incubated at 37° C. At 48 hours post-transfection, cells were rinsed and overlaid with either EMEM containing 2% fetal calf serum (2% EMEM), 2% EMEM containing HSV-2 (strain MS, Multiplicity of Infection [moi]=5 pfu/cell) or 2% EMEM containing HSV-2 and the appropriate concentration of Schering compound to be tested. Twenty-four hours later, the cells were harvested and assayed for beta galactosidase activity as described below.
All determinations of beta galactosidase activity were performed in 96 well microtiter plates. The intracellular level of beta galactosidase activity in each well was determined from cell lysates of the monolayer cultures. Aliquots were assayed by incubation in the presence of beta galactosidase substrate, 4-methylumbelliferyl-β-D-galactoside (MUG, 125 ug/ml, Sigma), for 2 hours. The generation of fluorescent product was quantified on a Microfluor microfluorimeter (Dynatech) after addition of 0.1M glycine, pH 10.3 (Spaete and Mocarski, 1985). The inhibitory activity of a compound was plotted versus the concentration and an IC50 value (the concentration of compound required to reduce beta glactosidase expression by 50%) was obtained for each compound tested.

[2] = Compound toxicity assay: inhibition of HeLa cell translation (3H-leucine incorporation); type: cell-based; conditions: human, HeLa cells
Experimental: as §1
HeLa cells were treated with inhibitory compound for 24 hours, after which levels of translational activity were assayed.
For assay of translational activity, HeLa cultures were grown to 80% confluency in 96 well microtiter plates, treated with appropriate concentrations of compound in 2% EMEM during an overnight incubation at 37° C., then rinsed with HBSS and overlaid with […] of 2% EMEM containing 8 uCi of tritiated leucine (^3 H-LEU, […], Amersham Corp., Arlington Heights, Ill.). After a 1 hour incubation at 36.5°C., the cells were rinsed twice with phosphate buffered saline (PBS) and lysed in 400 ul/well of 1×PBS, 0.5% sodium dodecyl sulphate (SDS). After a 10 min incubation at 36.5° C., the contents of the well were transferred to a well in a Millititer HA microfiltration plate (Millipore Corp., Bedford, Mass.). The TCA insoluble proteins were precipitated onto the filter disc by a 10 min fixation with 5% TCA, followed by filtration under vacuum and three 10 minute rinses with 95% ethanol. The filters were dried at room temperature, cut from the milltitier plate and transferred to scintillation vials. TCA precipitable counts were assayed in 5 ml of Scintisol (Isolab, Akron, Ohio). The inhibitory activity of a compound was plotted versus the concentration and an IC50 value (that concentration of the compound required to decrease cellular translational activity by 50%) was derived for each compound.

[3] = Human alphaherpesvirus 2, Table II, HeLa cells, HSV-2 strain MS, 24 h, read-out: Anti-HSV activity, HSV-β-GAL assay IC50
[4] = Table II, read-out: Cytotoxicity 3H-LEU assay IC50
[5] = Human alphaherpesvirus 2, HeLa, 24 h, read-out: Anti-HSV activity, HSV-β-GAL assay IC50
[6] = Human alphaherpesvirus 2, Table II^1, HeLa cells, HSV-2 strain MS, 24 h, read-out: Anti-HSV activity HSV-β-Gal assay IC50
[7] = Human alphaherpesvirus 2, HeLa, read-out: HSV: antiHSV activity, HSVβ-Gal Assay, IC50

Row | Compound | IC50 [1, 3] | CC50 at 24 h [2, 4] | other results
1 | CCCCCCn1c(=O)c(C=NOC)c(OC)c2cc(C)ccc21 [Compound 26, 1-Hexyl-3-Methoximinomethyl-4-Methoxy-6-Methyl-2(1H)-Quinolinone] | 7 µg/mL (≈ 21.2 µM) | 27 µg/mL (≈ 81.7 µM) | –
2 | CCCCCCn1c(=O)c(Cn2ncnn2)c(OC)c2ccccc21 [Compound 6, 1-hexyl-3-(2-tetrazolylmethyl)-4-methoxy-2(1H)-quinolinone] | – | 7 µg/mL (≈ 20.5 µM) | IC50 [1, 5]: 3 µg/mL (≈ 8.79 µM)
3 | Cc1c(OC(=O)[C@H](C)NC(=O)OC(C)(C)C)ccc2c(N)cc(=O)oc12 [Compound 71, 4-Amino-7-(BOC-L-Alanyloxy)-8-Methyl-Benzopyran-2-one] | – | – | IC50 [1, 6]: > 25 µg/mL
4 | CCCCCCn1c(=O)c(C2NCCS2)c(OC)c2cc(C)ccc21 (stereo not shown) [Compound 8, 1-Hexyl-3-(2-thiazolidinyl)-4-methoxy-6-methyl-2(1H)-Quinolinone] | – | 3 µg/mL (≈ 8.32 µM) | IC50 [1, 5]: < 3 µg/mL
5 | CCCCCCn1c(=O)c(C2OCCO2)c(OC)c2cc(C)ccc21 [Compound 23, 1-Hexyl-3-[2-(1,3-dioxolano)]-4-methoxy-6-methyl-2(1H)-Quinolinone] | 9 µg/mL (≈ 26.1 µM) | > 100 µg/mL | –
6 | CON=Cc1c(OC)c2ccccc2n(Cc2ccccc2)c1=O [Compound 20, 1-Benzyl-3-Methoxyiminomethyl-4-Methoxy-2(1H)-Quinolinone] | 7 µg/mL (≈ 21.7 µM) | – | –
7 | CCCCCCn1c(=O)c(C(=O)O)c(OC)c2cc(C)ccc21 [Compound 105] | – | – | IC50 [1, 7]: > 25 µg/mL
8 | CC(=O)Oc1c(Sc2ccccc2)c(=O)n(C)c2ccc(F)cc12 [Compound 102] | – | – | IC50 [1, 7]: 21 µg/mL (≈ 61.2 µM)
9 | CCOC(=O)c1c(OC(=O)c2ccc[nH]2)c2ccccc2n(C)c1=O [Compound 101] | – | – | IC50 [1, 7]: 20 µg/mL (≈ 58.8 µM); CC50 at 24 h ([2]; Table IV compound, read-out: Cytotoxicity 3H-Leu Assay IC50): 40 µg/mL (≈ 118 µM)
10 | CCCCCCn1c(=O)c(C(=O)OCC)c(OC)c2cc(C)ccc21 [Compound 19, 1-hexyl-3-ethoxycarbonyl-4-methoxy-6-methyl-2(1H)-quinolinone] | 7 µg/mL (≈ 20.3 µM) | – | –
11 | CCCCCCn1c(=O)c(C=NO)c(OC)c2cc(C)ccc21 [Compound 4, 1-Hexyl-3-Oximinomethyl-4-Methoxy-6-Methyl-2(1H )-Quinolinone] | – | 100 µg/mL (≈ 316 µM) | IC50 [1, 5]: 3 µg/mL (≈ 9.48 µM)
12 | Cc1cc2c(OCCN(C)C)c(SCO)c(=O)n(Cc3ccc(O[Si](C)(C)C(C)(C)C)cc3)c2cc1C [Compound 5] | 3 µg/mL (≈ 5.53 µM) | 15 µg/mL (≈ 27.6 µM) | –
13 | COc1c(SC)c(=O)n(Cc2ccc(O[Si](C)(C)C(C)(C)C)cc2)c2cc(C)c(C)cc12 [Compound 1] | 1.5 µg/mL (≈ 3.19 µM) | 1.8 µg/mL (≈ 3.83 µM) | –
14 | Cc1c(OC(=O)c2ccncc2)ccc2c(N)cc(=O)oc12 [Compound 67, 4-Amino-7-Isonicotinoxy-8-Methyl-Benzopyran-2-one] | – | – | IC50 [1, 6]: 14 µg/mL (≈ 47.3 µM)
15 | CCCCCCn1c(=O)c(Cn2cncn2)c(OC)c2cc(C)ccc21 [Compound 10, 1-Hexyl-3-(1,2,4-Triazol-1-ylmethyl)-4-Methoxy-6-Methyl-2(1H)-Quinolinone] | 4 µg/mL (≈ 11.3 µM) | > 100 µg/mL | –
16 | CCCCCCn1c(=O)c(C=NO)c(OC)c2ccccc21 [Compound 17, 1-Hexyl-3-Hydroximinomethyl-4-Methoxy-2(1H)-Quinolinone] | 6 µg/mL (≈ 19.8 µM) | 25 µg/mL (≈ 82.7 µM) | –
17 | CCCCCCn1c(=O)c(C=NOC)c(OC)c2ccccc21 [Compound 3, 1-Hexyl-3-Methoximinomethyl-4-Methoxy-2(1H)-Quinolinone] | 2.5 µg/mL (≈ 7.9 µM) | 12.6 µg/mL (≈ 39.8 µM) | –
18 | CCCCCCn1c(=O)c(CBr)c(OC)c2ccccc21 [Compound 15, 1-Hexyl-3-Bromomethyl-4-Methoxy-2(1H)-Quinolinone] | 5 µg/mL (≈ 14.2 µM) | 25 µg/mL (≈ 71 µM) | –

Row | Compound | IC50 [1, 3] | CC50 at 24 h [2, 4] | other results
19 | CCCCCCn1c(=O)c(C2NCCS2)c(OC)c2ccccc21 (stereo not shown) [Compound 2, 1-Hexyl-3-(2-thiazolidinyl)-4-methoxy-2(1H)-Quinolinone] | – | 32 µg/mL (≈ 92.4 µM) | IC50 [1, 5]: 2 µg/mL (≈ 5.77 µM)
20 | COc1c(Sc2ccccc2)c(=O)n(C)c2ccc(F)cc12 [Compound 22] | 8 µg/mL (≈ 25.4 µM) | 25 µg/mL (≈ 79.3 µM) | –
21 | C=CCOC(=O)c1c(OC)c2cc(C)ccc2n(CCCCCC)c1=O [Compound 104] | – | – | IC50 [1, 7]: > 25 µg/mL
22 | CCOC(=O)c1c(OC)c2ccccc2n(C)c1=O [Compound 107] | – | – | IC50 [1, 7]: > 25 µg/mL
23 | 4-Amino-7-Acetyloxy-8-Methyl-Benzopyran-2-one [Compound 68] | – | – | Anti-HSV activity HSV-β-Gal assay IC50 ([1]; Table II^1, HeLa cells, HSV-2 strain MS, 24 h): 30.0 µg/mL
24 | CCCCCCn1c(=O)c(Cn2ncnn2)c(OC)c2cc(C)ccc21 [Compound 13, 1-hexyl-3-(2-tetrazolylmethyl)-4-methoxy-6-methyl-2(1H)-quinolinone] | 5 µg/mL (≈ 14.1 µM) | 17 µg/mL (≈ 47.8 µM) | –
25 | Cc1c(OC(=O)c2ccco2)ccc2c(N)cc(=O)oc12 [Compound 65, 4-Amino-7-(2-Furoyloxy)-8-Methyl-Benzopyran-2-one] | – | – | IC50 [1, 6]: > 25 µg/mL
26 | CCCCCCn1c(=O)c(Cn2cncn2)c(OC)c2ccccc21 [Compound 16, 1-Hexyl-3(1,2,4-Triazol-1-ylmethyl)-4-Methoxy-2(1H)-Quinolinone] | 5 µg/mL (≈ 14.7 µM) | 18 µg/mL (≈ 52.9 µM) | –
27 | COc1c(CCO)c(=O)n(C)c2ccccc12 [Compound 106] | – | – | IC50 [1, 7]: > 25 µg/mL
28 | COc1c(SC)c(=O)n(Cc2ccc(O)cc2)c2cc(C)c(C)cc12 [Compound 25] | 10 µg/mL (≈ 28.1 µM) | – | –
29 | CCCCCCn1c(=O)c(Cn2cnnn2)c(OC)c2ccccc21 [Compound 18, 1-Hexyl-3-(1-tetrazolymethyl)-4-methoxy-2(1H)-quinolinone] | 6 µg/mL (≈ 17.6 µM) | 18 µg/mL (≈ 52.7 µM) | –
30 | CCCCCCn1c(=O)c(Cn2cnnc2)c(OC)c2cc(C)ccc21 [Compound 12, 1-hexyl-3-(1,2,4-triazol-4-ylmethyl)-4-methoxy-6-methyl-2(1H)-quinolinone] | 4.5 µg/mL (≈ 12.7 µM) | 32 µg/mL (≈ 90.3 µM) | –
31 | CCCCCCn1c(=O)c(C(=O)OCC)c(OC(=O)c2cccn2C)c2cc(C)ccc21 [Compound 103] | – | – | IC50 [1, 7]: 25 µg/mL (≈ 57 µM)
32 | CCCCCCn1c(=O)c(Cn2ccnc2)c(OC)c2cc(C)ccc21 [Compound 11, 1-Hexyl-3-(1H-imidazol-1-ylmethyl)-4-methoxy-6-methyl-2(1H)-quinolinone] | 4.5 µg/mL (≈ 12.7 µM) | 17 µg/mL (≈ 48.1 µM) | –
33 | CCCCCCn1c(=O)c(C2OCCO2)c(OC)c2ccccc21 [Compound 24] | 10 µg/mL (≈ 30.2 µM) | – | –
34 | CCCCCCn1c(=O)c(Cn2cnnn2)c(OC)c2cc(C)ccc21 [Compound 14, 1-Hexyl-3-(1-Tetrazolylmethyl)-4-Methoxy-6-Methyl-2(1H)-Quinolinone] | 5 µg/mL (≈ 14.1 µM) | > 100 µg/mL | –
35 | Cc1c(OC(=O)c2cccs2)ccc2c(N)cc(=O)oc12 [Compound 66, 4-Amino-7-(Thiophene-2-carbonyloxy)-8-Methyl-Benzopyran-2-one] | – | – | IC50 [1, 6]: > 25 µg/mL
